Test results from US20240207350A1, “COMBINATION PREPARATION CONTAINING RESVERATROL” (priority 2021, published 2024).

Tested on: Circulating human tumour cells (CTC's) characterised by EpCAM
Test: in vitro vitality reduction of circulating tumour cells from a blood sample of a prostate carcinoma patient
Assay type: cell-based
Conditions: CTCs of a prostate carcinoma patient
Source text: A patient, suffering from a prostate carcinoma, was examined by checking a blood sample. Circulating human tumour cells (CTC's) characterised by EpCAM and additional cell surface markers have been used. The CTC's have been tested with different anti-cancer drugs. […] Furthermore, the positive effects could be shown to be dose dependent.

Question: With `C[C@H]1[C@H](OC(=O)CCC(=O)O)O[C@@H]2O[C@@]3(C)CC[C@H]4[C@H](C)CC[C@@H]1[C@@]24OO3` [Artesunat] as the compound, how does the “Concentration- and time-dependent specific in vitro vitality reduction (%) in the presence of eutherapeutic concentrations” value (eutherapeutic concentration, not specified) read?
Answer: The value was 60%.

Question: For `COc1cc(/C=C/C(=O)CC(=O)/C=C/c2ccc(O)c(OC)c2)ccc1O` [Curcumin, curcumin], which “Concentration- and time-dependent specific in vitro vitality reduction (%) in the presence of eutherapeutic concentrations” value (450 mg) is on record?
Answer: The value was 80%.

Question: Which results are given for `C=C1CC[C@H](O)C/C1=C/C=C1\CCC[C@]2(C)[C@@H]([C@H](C)CCCC(C)(C)O)CC[C@@H]12` [Example 25-OH-D3, 25-OH-D3]?
Answer: Concentration- and time-dependent specific in vitro vitality reduction (%) in the presence of eutherapeutic concentrations (100 ng/ml): 25%; Concentration- and time-dependent specific in vitro vitality reduction (%) in the presence of eutherapeutic concentrations (200 ng/ml): 30%

Question: For `CCC(=O)C(CC(C)N(C)C)(c1ccccc1)c1ccccc1` (centres unmarked) [Methadone], which “Concentration- and time-dependent specific in vitro vitality reduction (%) in the presence of eutherapeutic concentrations” value (3 × 15 drops) is on record?
Answer: The value was 30%.
